The record followed here is ChEMBL document CHEMBL5579794, “Improved synthesis and evaluation of preclinical pharmacodynamic parameters of a new monocyclic β-lactam DPI-2016” (Bioorg Med Chem Lett, 2024).

Series [1] relates to Pseudomonas aeruginosa. The experiment in a line: Antibacterial activity against Pseudomonas aeruginosa infected in BalbC mouse model of Septicaemia infection assessed as survival rate at 8 mg/kg administered 30 mins post infection and measured after 1 day relative to control. The note with it: 24 h. Format: functional.
Another series relates to THP-1. The series can be described thus: Cytotoxicity against human THP-1 cells at upto 300 ug/ml relative to control. As to conditions: up to 300 µg/mL. Format: toxicity, cell-based.
Series [2] in a line: Plasma protein binding in mouse at 1 uM incubated for 6 hrs by LC-MS/MS analysis. In kind it is ADME, cell-free. The note with it: read-out: PPB (converted).
Series [3] has as its system Pseudomonas aeruginosa. The series can be described thus: Antibacterial activity against Pseudomonas aeruginosa infected in BalbC mouse model of Septicaemia infection assessed as survival rate at 4 mg/kg administered 30 mins post infection and measured after 6 days relative to control. In kind it is functional. The note with it: 144 h, time 6 day.
For the next series, the system named is NRK-52E. The series can be described thus: Cytotoxicity against rat NRK-52E cells at upto 300 ug/ml relative to control. In kind it is toxicity, cell-based. The note with it: up to 300 µg/mL.
Series [4] deals with Pseudomonas aeruginosa. The series can be described thus: Antibacterial activity against Pseudomonas aeruginosa infected in BalbC mouse model of Septicaemia infection assessed as survival rate at 4 mg/kg administered 30 mins post infection and measured after 4 days relative to control. In kind it is functional. The note with it: 96 h, time 4 day.
Series [5] relates to Pseudomonas aeruginosa. The experiment in a line: Antibacterial activity against Pseudomonas aeruginosa infected in BalbC mouse model of Septicaemia infection assessed as survival rate at 8 mg/kg administered 30 mins post infection and measured after 3 days relative to control. Format: functional. The note with it: 72 h, time 3 day.
Series [6] concerns Pseudomonas aeruginosa. The experiment in a line: Antibacterial activity against Pseudomonas aeruginosa infected in BalbC mouse model of Septicaemia infection assessed as survival rate at 8 mg/kg administered 30 mins post infection and measured after 6 days relative to control. In kind it is functional. The note with it: 144 h, time 6 day.
The subject of series [7] is Pseudomonas aeruginosa. The experiment in a line: Antibacterial activity against Pseudomonas aeruginosa infected in BalbC mouse model of Septicaemia infection assessed as survival rate at 4 mg/kg administered 30 mins post infection and measured after 5 days relative to control. In kind it is functional. As to conditions: 120 h, time 5 day.
Series [8] is described as follows: Volume of distribution in male Sprague-Dawley rat at 2 mg/kg by LC-MS/MS analysis. The note with it: in vivo. Format: ADME, organism-based.
The subject of the next series is H9c2. The series can be described thus: Cytotoxicity against rat H9c2 cells at upto 300 ug/ml relative to control. Format: toxicity, cell-based. The note with it: up to 300 µg/mL.
The test system of series [9] is Pseudomonas aeruginosa. The experiment in a line: Antibacterial activity against Pseudomonas aeruginosa infected in BalbC mouse model of Septicaemia infection assessed as survival rate at 4 mg/kg administered 30 mins post infection and measured after 7 days relative to control. Format: functional. As to conditions: 168 h, time 7 day.
Series [10] deals with Pseudomonas aeruginosa. The series can be described thus: Antibacterial activity against Pseudomonas aeruginosa infected in BalbC mouse model of Septicaemia infection assessed as survival rate at 4 mg/kg administered 30 mins post infection and measured after 2 days relative to control. In kind it is functional. The note with it: 48 h, time 2 day.
Series [11] deals with Pseudomonas aeruginosa. The series can be described thus: Antibacterial activity against Pseudomonas aeruginosa infected in BalbC mouse model of Septicaemia infection assessed as survival rate at 8 mg/kg administered 30 mins post infection and measured after 2 days relative to control. The note with it: 48 h, time 2 day. In kind it is functional.
Series [12] is described as follows: Stability in human plasma at 1 uM measured upto 120 mins by LC-MS/MS analysis. Format: ADME, cell-free. As to conditions: 2 h.
For the next series, the system named is J774.A1. The series can be described thus: Cytotoxicity against mouse J774.A1 cells at upto 300 ug/ml relative to control. In kind it is toxicity, cell-based. As to conditions: up to 300 µg/mL.
Series [13] deals with Pseudomonas aeruginosa. The experiment in a line: Antibacterial activity against Pseudomonas aeruginosa infected in BalbC mouse model of Septicaemia infection assessed as survival rate at 8 mg/kg administered 30 mins post infection and measured after 5 days relative to control. Format: functional. As to conditions: 120 h, time 5 day.
Series [14] can be described thus: Cytotoxicity against mouse BALB/3T3 clone A31 cells at upto 300 ug/ml relative to control. Format: toxicity, cell-based. As to conditions: up to 300 µg/mL.
Series [15] has as its system Pseudomonas aeruginosa. The experiment in a line: Antibacterial activity against Pseudomonas aeruginosa infected in BalbC mouse model of Septicaemia infection assessed as survival rate at 8 mg/kg administered 30 mins post infection and measured after 4 days relative to control. The note with it: 96 h, time 4 day. In kind it is functional.
Series [16] relates to Pseudomonas aeruginosa. The experiment in a line: Antibacterial activity against Pseudomonas aeruginosa infected in BalbC mouse model of Septicaemia infection assessed as survival rate at 4 mg/kg administered 30 mins post infection and measured after 1 day relative to control. In kind it is functional. The note with it: 24 h.
Series [17] is described as follows: Half life in male Sprague-Dawley rat at 2 mg/kg by LC-MS/MS analysis. Format: ADME, organism-based. The note with it: in vivo.
The test system of the next series is HepG2. The experiment in a line: Cytotoxicity against human HepG2 cells at upto 300 ug/ml relative to control. In kind it is toxicity, cell-based. As to conditions: up to 300 µg/mL.
Series [18] concerns Pseudomonas aeruginosa. The series can be described thus: Antibacterial activity against Pseudomonas aeruginosa infected in BalbC mouse model of Septicaemia infection assessed as survival rate at 8 mg/kg administered 30 mins post infection and measured after 7 days relative to control. In kind it is functional. The note with it: 168 h, time 7 day.
The subject of series [19] is Pseudomonas aeruginosa. The series can be described thus: Antibacterial activity against Pseudomonas aeruginosa infected in BalbC mouse model of Septicaemia infection assessed as survival rate at 64 mg/kg administration starting at 0.5 to 2 hrs post infection and measured after 6 days relative to control. The note with it: 144 h, time 6 day. In kind it is functional.

The subject of series [20] is Pseudomonas aeruginosa. The experiment in a line: Antibacterial activity against Pseudomonas aeruginosa infected in BalbC mouse model of Septicaemia infection assessed as survival rate at 128 mg/kg administration starting at 0.5 to 2 hrs post infection and measured after 2 days relative to control. In kind it is functional. As to conditions: 48 h, time 2 day.
Series [21] deals with Pseudomonas aeruginosa. The series can be described thus: Antibacterial activity against Pseudomonas aeruginosa infected in BalbC mouse model of Septicaemia infection assessed as survival rate at 128 mg/kg administration starting at 0.5 to 2 hrs post infection and measured after 6 days relative to control. As to conditions: 144 h, time 6 day. In kind it is functional.
Series [22] has as its system Pseudomonas aeruginosa. The experiment in a line: Antibacterial activity against Pseudomonas aeruginosa infected in BalbC mouse model of Septicaemia infection assessed as survival rate at 64 mg/kg administration starting at 0.5 to 2 hrs post infection and measured after 3 days relative to control. Format: functional. The note with it: 72 h, time 3 day.
Series [23] deals with Pseudomonas aeruginosa. The series can be described thus: Antibacterial activity against Pseudomonas aeruginosa infected in BalbC mouse model of Septicaemia infection assessed as survival rate at 64 mg/kg administration starting at 0.5 to 2 hrs post infection and measured after 7 days relative to control. As to conditions: 168 h, time 7 day. In kind it is functional.
The subject of series [24] is Pseudomonas aeruginosa. The experiment in a line: Antibacterial activity against Pseudomonas aeruginosa infected in BalbC mouse model of Septicaemia infection assessed as survival rate at 128 mg/kg administration starting at 0.5 to 2 hrs post infection and measured after 1 day relative to control. In kind it is functional. As to conditions: 24 h.
The subject of series [25] is Pseudomonas aeruginosa. The series can be described thus: Antibacterial activity against Pseudomonas aeruginosa infected in BalbC mouse model of Septicaemia infection assessed as survival rate at 128 mg/kg administration starting at 0.5 to 2 hrs post infection and measured after 7 days relative to control. Format: functional. As to conditions: 168 h, time 7 day.
Series [26] relates to Pseudomonas aeruginosa. The experiment in a line: Antibacterial activity against Pseudomonas aeruginosa infected in BalbC mouse model of Septicaemia infection assessed as survival rate at 128 mg/kg administration starting at 0.5 to 2 hrs post infection and measured after 4 days relative to control. Format: functional. The note with it: 96 h, time 4 day.
For series [27], the system named is Pseudomonas aeruginosa. The series can be described thus: Antibacterial activity against Pseudomonas aeruginosa infected in BalbC mouse model of Septicaemia infection assessed as survival rate at 128 mg/kg administration starting at 0.5 to 2 hrs post infection and measured after 3 days relative to control. As to conditions: 72 h, time 3 day. In kind it is functional.

For series [28], the system named is Pseudomonas aeruginosa. The series can be described thus: Antibacterial activity against Pseudomonas aeruginosa infected in BalbC mouse model of Septicaemia infection assessed as survival rate at 64 mg/kg administration starting at 0.5 to 2 hrs post infection and measured after 5 days relative to control. In kind it is functional. The note with it: 120 h, time 5 day.

Series [29] has as its system Pseudomonas aeruginosa. The experiment in a line: Antibacterial activity against Pseudomonas aeruginosa infected in BalbC mouse model of Septicaemia infection assessed as survival rate at 64 mg/kg administration starting at 0.5 to 2 hrs post infection and measured after 1 day relative to control. In kind it is functional. As to conditions: 24 h.
Series [30] relates to Pseudomonas aeruginosa. The experiment in a line: Antibacterial activity against Pseudomonas aeruginosa infected in BalbC mouse model of Septicaemia infection assessed as survival rate at 128 mg/kg administration starting at 0.5 to 2 hrs post infection and measured after 5 days relative to control. The note with it: 120 h, time 5 day. Format: functional.

Where only a bound is given, the exact number is not on record here.

On to `Cc1sc(N)nc1/C(=N/O[C@@H](COc1ccc(C(=N)N[C@@H]2CCNC2)cc1)C(=O)O)C(=O)N[C@@H]1C(=O)N(OS(=O)(=O)O)C1(C)C`, for which the survival at 8 mg/kg came to 100% in the series on Pseudomonas aeruginosa [1]; 60% in the series on Pseudomonas aeruginosa [5]; 60% in the series with Pseudomonas aeruginosa [6]; 60% in the series on Pseudomonas aeruginosa [11]; 60% in the series with Pseudomonas aeruginosa [13]; 60% with Pseudomonas aeruginosa [15]. The survival at 8 mg/kg in the series on Pseudomonas aeruginosa [18] is 60%. The Activity (in the series on THP-1; in the series on NRK-52E; with H9c2; in the series with J774.A1; in series [14]; in the series with HepG2) was more than 80% each time. Also, the fraction unbound at 6 h, 1 µM in series [2] was 0.532. For the same compound, the survival at 4 mg/kg came out at 30% with Pseudomonas aeruginosa [3]; 30% in the series on Pseudomonas aeruginosa [4]; 30% with Pseudomonas aeruginosa [7]; 30% in the series with Pseudomonas aeruginosa [9]; 60% in the series on Pseudomonas aeruginosa [10]; 60% in the series with Pseudomonas aeruginosa [16]. In [8], this compound showed a Vd of 0.37 L/kg. Further, the Stability entry in series [12] is “Stable”. In series [17], the half-life is 24 min.
For the compound `C[C@H]1[C@H](NC(=O)/C(=N\OC(C)(C)C(=O)O)c2csc(N)n2)C(=O)N1S(=O)(=O)O` [AZTREONAM], the survival at 64 mg/kg in the series with Pseudomonas aeruginosa [19] worked out at 60%; with Pseudomonas aeruginosa [22], 60%; in the series with Pseudomonas aeruginosa [23], 60%; in the series on Pseudomonas aeruginosa [28], 60%; in the series on Pseudomonas aeruginosa [29], 100%. Also, the survival at 128 mg/kg in the series on Pseudomonas aeruginosa [20] stood at 90%; with Pseudomonas aeruginosa [21], 90%; with Pseudomonas aeruginosa [24], 100%; with Pseudomonas aeruginosa [25] it was 90%; with Pseudomonas aeruginosa [26], 90%; with Pseudomonas aeruginosa [27], 90%. In addition, the survival at 128 mg/kg with Pseudomonas aeruginosa [30] amounted to 90%.
